Measurements reported in US20100331577A1, “Method for radio-labeling serotonin transporter ligand, 123I-IADM” (ATOMIC ENERGY COUNCIL-INSTITUTE OF NUCLEAR ENERGY RESEARCH, priority 2008, published 2010).

Legend:
serotonin transporter [1] = molecular target: T1, serotonin transporter (Homo sapiens, UniProt P31645); settings: cited from earlier work; for specific binding affinity: imaging of the serotonin transporter; for clarity of the image obtained: compared with ^125I-IDAM
[2] = cited from earlier work
SERT = SERT (Homo sapiens, UniProt P31645); settings: in vitro specific binding assay; cited from earlier work
serotonin transporter [3] = molecular target: T1, serotonin transporter; settings: cited from earlier work
serotonin transporter [4] = assay: SPECT and MRI imaging of the brain of an ape; type: in vivo
From the text: Referring to FIG. 9, the ^123I-ADAM is used to provide a SPECT image and a MRI image 82 of an ape. […] The concentration of the serotonin transporter in the hypothalamus is higher than in the cerebellum 83. The ^123I-ADAM 13 can effectively be used to detect the serotonin transporter.

serotonin transporter [5] = molecular target: T2, serotonin transporter (Rattus norvegicus, UniProt P31652); assay: microSPECT and microCT imaging of the brain of a SD rat; type: in vivo
T2 construct: from tissue; host or cells: brain of a SD rat (in vivo imaging)
From the text: Referring to FIG. 8, a microCT image 71 and a microSPECT image 72 of the brain of a SD rat are shown. A fused image 73 of the microCT image and the microSPECT image 72 is also shown. […] The concentration of the serotonin transporter in the midbrain is higher than in the cerebellum 73. The ^123I-ADAM 13 can effectively be used to detect the serotonin transporter.

[6] = radiochemistry purity over time measured by HPLC (stability); type: physicochemical; settings: main peak 63
Description: Referring to FIG. 4, an HPLC is used to measure the radiochemistry purity of the ^123I-ADAM 13. Reverse-phase high-performance liquid chromatography equipped with a radiodetector is used for the qualitative and quantitative assessment of the ^123I-ADAM 13. The retention time of the ^123I-ADAM 13 is 18 minutes.
Referring to FIG. 6, the radiochemistry purity of the ^123I-ADAM after 0 hour is shown in a chart. At 61, the radiochemistry purity is 0.67%. At 62, the radiochemistry purity is 1.58%. At 63, the radiochemistry purity is 97.78%.
Referring to FIG. 7, the radiochemistry purity of the ^123I-ADAM after 48 hours is shown in a chart. At 64, the radiochemistry purity is 4.41%. At 65, the radiochemistry purity is 1.55%. At 66 the radiochemistry purity is 94.04%. After 48 hours, the radiochemistry purity is still higher than 90%.

T1 sequence (P31645 whole entry): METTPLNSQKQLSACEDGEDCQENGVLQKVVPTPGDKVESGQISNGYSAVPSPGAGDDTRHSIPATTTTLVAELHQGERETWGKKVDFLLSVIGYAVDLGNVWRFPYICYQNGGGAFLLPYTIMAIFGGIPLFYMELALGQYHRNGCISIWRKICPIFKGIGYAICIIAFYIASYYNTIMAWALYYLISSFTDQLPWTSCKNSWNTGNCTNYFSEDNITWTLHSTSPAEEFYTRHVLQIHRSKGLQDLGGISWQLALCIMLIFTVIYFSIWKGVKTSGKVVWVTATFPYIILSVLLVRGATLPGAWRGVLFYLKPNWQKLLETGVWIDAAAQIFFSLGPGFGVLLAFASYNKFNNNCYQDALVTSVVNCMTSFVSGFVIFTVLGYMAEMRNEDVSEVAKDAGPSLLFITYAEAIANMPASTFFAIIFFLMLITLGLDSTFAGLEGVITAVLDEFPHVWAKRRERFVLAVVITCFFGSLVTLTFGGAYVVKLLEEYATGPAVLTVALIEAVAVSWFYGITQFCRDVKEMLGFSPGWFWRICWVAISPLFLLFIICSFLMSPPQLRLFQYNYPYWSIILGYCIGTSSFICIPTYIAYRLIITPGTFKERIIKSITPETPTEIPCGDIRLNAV
Sequence of SERT (P31645 whole entry): as above
T2 sequence (P31652 whole entry): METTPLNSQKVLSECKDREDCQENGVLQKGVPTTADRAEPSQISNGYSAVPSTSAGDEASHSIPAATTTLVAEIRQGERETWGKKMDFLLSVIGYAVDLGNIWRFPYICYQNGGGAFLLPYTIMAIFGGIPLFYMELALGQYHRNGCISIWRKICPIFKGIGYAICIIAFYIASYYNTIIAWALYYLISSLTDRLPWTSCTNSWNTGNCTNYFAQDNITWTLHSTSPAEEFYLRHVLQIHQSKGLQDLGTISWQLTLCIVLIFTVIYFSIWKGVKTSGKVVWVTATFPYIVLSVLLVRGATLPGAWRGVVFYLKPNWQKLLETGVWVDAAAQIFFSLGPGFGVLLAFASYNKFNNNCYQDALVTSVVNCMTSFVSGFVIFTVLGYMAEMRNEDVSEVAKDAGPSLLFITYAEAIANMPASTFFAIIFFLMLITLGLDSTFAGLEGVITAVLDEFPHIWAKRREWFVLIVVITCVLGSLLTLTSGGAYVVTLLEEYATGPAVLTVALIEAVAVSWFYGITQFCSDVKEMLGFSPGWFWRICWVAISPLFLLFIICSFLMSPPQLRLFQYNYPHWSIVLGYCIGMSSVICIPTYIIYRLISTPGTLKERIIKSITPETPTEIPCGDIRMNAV

Structure (SMILES): CN(C)Cc1ccccc1Sc1ccc([125I])cc1CO [^125I-IDAM]
- specific binding affinity (serotonin transporter [1]): 1.75
- absorption by a brain ([2]; two minutes after injection): 2.44%

Structure (SMILES): CN(C)Cc1ccccc1Oc1ccc([125I])cc1CO [^125I-ODAM]
- clarity of the image obtained (serotonin transporter [1]): less clear than with the use of ^125I-IDAM
- specific binding affinity with SERT (SERT): good

Structure (SMILES): CN(C)Cc1ccccc1Sc1ccc([125I])cc1N [^125I-ADAM]
- clarity of the image obtained (serotonin transporter [1]): clearer
- specific binding affinity (serotonin transporter [1]): much higher than ^125I-IDAM
- absorption by the brain ([2]; compared with ^125I-IDAM): less than ^125I-IDAM
- affinity with the serotonin transporter (serotonin transporter [3]): much better than that of ^125I-IDAM

Structure (SMILES): CN(C)Cc1ccccc1Sc1ccc([123I])cc1N [^123I-ADAM]
- affinity with the hypothalamus of the midbrain versus cerebellum (serotonin transporter [4]): more affinitive than with the cerebellum
- affinity with the midbrain versus cerebellum (serotonin transporter [5]): better than with the cerebellum
- radiochemistry purity after 0 hour [6]: 97.78%
